Data on 22 compounds can be found in US20230399320A1, “NOVEL CAPSID ASSEMBLY INHIBITOR” (Pelemed Co., Ltd., priority 2020, published 2023).

The target in assay [1] is T1, Cp149 (truncated form of a HBV core protein) (Hepatitis B virus genotype D subtype ayw, UniProt P03146).
T1 construct: Cp149 (amino acids 1-149) is a truncated form of a HBV core protein; histidine tag (cleaved yes); made in house; host or cells: Escherichia coli BL21(DE3)
The assay can be described thus: Protein based assay: immunoblot analysis of in vitro HBV capsid assembly. Type of assay: biochemical. The settings on record: for inhibition at 10 µM: read-out: Protein based assay (% inhibition, 10 μM); for inhibition at 0.1 µM: read-out: Protein based assay (% inhibition), 0.1 μM; for inhibition at 1 µM: read-out: Protein based assay (% inhibition), 1 μM. The protocol: Cp149 (amino acids 1-149) is a truncated form of a HBV core protein. It was expressed in Escherichia coli, and the expressed protein was purified. The recombinant Cp149 was expressed in E. coli BL21(DE3) cells cultured in LB medium at 37° C. When the culture reached an OD600 of 0.7 to 0.8, expression of the culture was induced with 0.5 mM isopropyl-β-d-thiogalactopyranoside and the culture was cooled to 16° C. After 16 hours, the cells were harvested, flash-frozen in liquid nitrogen, and stored at −80° C. To purify Cp149, thawed cells were resuspended in lysis buffer (20 mM Tris-HCl pH 9.0, 200 mM NaCl, 10 mM imidazole, 10 μg per mL DNaseI, 1 mM phenylmethylsulfonyl fluoride), and treated with ultrasonic waves. The supernatant was loaded onto Ni-NTA affinity resin. Proteins were eluted using a 20 mM to 500 mM imidazole gradient dissolved in lysis buffer. After removing the histidine tag with thrombin, the protein was further purified by HiTrap Q anion exchange chromatography (17115401, GE Healthcare).
To determine the effect on in vitro Cp149 assembly, compounds of the present invention were added to the Cp149-containing suspension. The final concentration of Cp149 was 1 mg per mL, and the compounds of the present invention were added at concentrations of 0.1 to 10 μM. The suspension was mixed with reaction buffer (150 mM HEPES, pH 7.5, 15 mM NaCl) added in a 2:1 ratio. In vitro assembly was performed at 37° C. for 1 hour, and HBV capsid was detected by immunoblot analysis using an anti-HBV core antibody (1:2000, B0586, Dako).

A further assay has as its system HBV DNA. The assay can be described thus: Quantitative PCR for measuring HBV DNA in cells (HBV DNA quantification). Type of assay: cell-based. The protocol: After treating cells with the indicated compounds, HBV DNA secreted into the medium and intracellular HBV DNA were extracted, purified, and quantified by quantitative PCR. To isolate the secreted HBV DNA, the culture medium was recovered and centrifuged at 15,000×g to remove debris. The medium was diluted 1:1 with phosphate-buffered saline (PBS), and 1 M NaOH solution was added to a final concentration of 0.1 M. The mixture was incubated at 37° C. for 1 hour. The protein was denatured by adding 2M Tris-HCl solution (pH 7.5) to a final concentration of 0.2 M and incubating at 98° C. for 5 minutes. The protein precipitation was removed by centrifugation at 15,000×g, and the supernatant was subjected to PCR with HBV DNA primer and probe sets:
Forward: 5′-[…]-3′, Reverse: 5′-[…]-3′, Probe: 5′-[…]-3′.

[2] abbreviates: Hepatitis B virus; read-out: HBV DNA quantification (IC50 μM).
The mark [3] stands for this setting: Hepatitis B virus, read-out: HBV DNA quantification (IC50 μM).
Where [4] appears, read: Hepatitis B virus, read-out: HBV DNA quantification.

pIC50: −log10 of the molar value. Where two headings read alike, the source gives them in different places. Where only a bound is given, the exact number is not on record here.

T1 sequence (P03146 1-149): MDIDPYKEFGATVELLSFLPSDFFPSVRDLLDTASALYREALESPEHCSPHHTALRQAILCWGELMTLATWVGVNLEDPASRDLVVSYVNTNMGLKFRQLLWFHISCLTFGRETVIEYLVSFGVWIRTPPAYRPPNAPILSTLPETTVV

Consider `COc1ncccc1C(=O)NCCNc1cc(Nc2ccc(N3CCOCC3)cc2)nc(SC)n1` [Compound 4a, 2-methoxy-N-(2-(2-(methylthio)-6-(4-morpholinophenylamino)pyrimidin-4-ylamino)ethyl)nicotinamide], for which, in assay [1], the pIC50 was 5.01 and the inhibition at 10 µM is 23%. Also, the IC50 in the assay on HBV DNA (setting [2]) was > 10 µM.

`COc1ncccc1C(=O)NCCNc1cc(Nc2ccc(I)cc2)nc([S+](C)[O-])n1` (stereo not shown) [Compound 9e, N-(2-(6-(4-iodophenylamino)-2-(methylsulfinyl)pyrimidin-4-ylamino)ethyl)-2-methoxynicotinamide]: in assay [1], the inhibition at 10 µM stood at 37%. Also, in the assay on HBV DNA (setting [2]), the 50% inhibitory concentration (IC50) was > 10 µM.

For the compound `CSc1nc(NCCNC(=O)c2ccc(Cl)cc2Cl)cc(Nc2ccc(N3CCOCC3)cc2)n1` [Compound 4d, 2,4-dichloro-N-(2-(2-(methylthio)-6-(4-morpholinophenylamino)pyrimidin-4-ylamino)ethyl)benzamide], the inhibition at 10 µM in assay [1] is 0%. In addition, in the assay with HBV DNA (setting [3]), the half-inhibitory concentration (IC50) was > 10 µM.

For `CS(=O)(=O)c1nc(Nc2cc(F)c(F)c(F)c2)cc(NC2CCNCC2)n1` [Compound 26e, 2-(methylsulfonyl)-N^4-(piperidin-4-yl)-N^6-(3,4,5-trifluorophenyl)pyrimidine-4,6-diamine], in assay [1], the inhibition at 0.1 µM turned out to be 16% and the inhibition at 1 µM stood at 90%. Also, the concentration for half-maximal inhibition (IC50) in the assay with HBV DNA (setting [2]) worked out at 0.19 µM.

In the case of `CC(C)(C)OC(=O)N1CCN(c2cc(Nc3ccc(Br)cc3)nc(S(C)(=O)=O)n2)CC1` [Compound 22e, tert-butyl 4-(6-(4-bromophenylamino)-2-(methylsulfonyl)pyrimidin-4-yl)piperazine-1-carboxylate], in assay [1], the inhibition at 10 µM was determined as 67%. Further, the half-inhibitory concentration (IC50) in the assay on HBV DNA (setting [3]) stood at 0.652 µM.

In the case of `CS(=O)(=O)c1nc(Cl)cc(Nc2cc(F)c(F)c(F)c2)n1` [Compound 16b, 6-chloro-2-(methylsulfonyl)-N-(3,4,5-trifluorophenyl)pyrimidin-4-amine], in assay [1], the inhibition at 10 µM was 82%. In the assay on HBV DNA (setting [3]), the IC50 was 0.473 µM.

Regarding `CC(C)(C)OC(=O)N1CCN(c2cc(Nc3cc(F)c(F)c(F)c3)nc(S(C)(=O)=O)n2)CC1` [Compound 22h, tert-butyl 4-(2-(methylsulfonyl)-6-(3,4,5-trifluorophenylamino)pyrimidin-4-yl)piperazine-1-carboxylate], the inhibition at 10 µM in assay [1] was 96%. Further, the half-inhibitory concentration (IC50) with HBV DNA (setting [3]) turned out to be 0.577 µM.

For `CSc1nc(Cl)cc(N(CCc2ccc(F)cc2)c2ccc(N3CCOCC3)cc2)n1` [Compound 10b, 6-chloro-N-(4-fluorophenethyl)-2-(methylthio)-N-(4-morpholinophenyl)pyrimidin-4-amine], the inhibition at 10 µM in assay [1] was found to be 76%. In addition, in the assay with HBV DNA (setting [3]), the IC50 is > 10 µM.

Consider `COc1ncccc1C(=O)NCCNc1cc(Nc2ccc(Cl)cc2)nc(SC)n1` [Compound 8c, N-(2-(6-(4-chlorophenylamino)-2-(methylthio)pyrimidin-4-ylamino)ethyl)-2-methoxynicotinamide], for which the inhibition at 10 µM in assay [1] turned out to be 26%. The pIC50 with HBV DNA (setting [4]) is < 5.00.

With `COc1ncccc1C(=O)NCCNc1cc(Nc2ccc(Cl)cc2)nc([S+](C)[O-])n1` (stereo not shown) [Compound 9c, N-(2-(6-(4-chlorophenylamino)-2-(methylsulfinyl)pyrimidin-4-ylamino)ethyl)-2-methoxynicotinamide], in assay [1], the inhibition at 0.1 µM stood at 27% and the inhibition at 1 µM came to 80%. Also, in the assay on HBV DNA (setting [3]), the half-maximal inhibitory concentration (IC50) amounted to 0.299 µM.

Take `CS(=O)(=O)c1nc(Nc2ccc(F)c(Cl)c2)cc(NC2CCNCC2)n1` [Compound 26f, N^4-(3-chloro-4-fluorophenyl)-2-(methylsulfonyl)-N^6-(piperidin-4-yl)pyrimidine-4,6-diamine]: in assay [1], the inhibition at 0.1 µM is 59% and the inhibition at 1 µM came out at 95%. For the same compound, the IC50 in the assay on HBV DNA (setting [3]) was 0.199 µM.

On to `CS(=O)(=O)c1nc(Nc2ccc(F)c(Cl)c2)cc(Nc2ccc(F)c(Cl)c2)n1` [Compound 18c, N^4,N^6-bis(3-chloro-4-fluorophenyl)-2-(methylsulfonyl)pyrimidine-4,6-diamine], for which the inhibition at 10 µM in assay [1] was 57%. For the same compound, the IC50 in the assay with HBV DNA (setting [3]) came to 0.587 µM.

In the case of `CC(C)(C)OC(=O)N1CCN(c2cc(Nc3ccc(I)cc3)nc(S(C)(=O)=O)n2)CC1` [Compound 22f, tert-butyl 4-(6-(4-iodophenylamino)-2-(methylsulfonyl)pyrimidin-4-yl)piperazine-1-carboxylate], the inhibition at 10 µM in assay [1] worked out at 66%. In addition, the concentration for half-maximal inhibition (IC50) in the assay with HBV DNA (setting [3]) stood at 1.1 µM.

Regarding `CC(C)(C)OC(=O)N1CCN(c2cc(NCc3ccc(F)cc3)nc(S(C)(=O)=O)n2)CC1` [Compound 22b, tert-butyl 4-(6-(4-fluorobenzylamino)-2-(methylsulfonyl)pyrimidin-4-yl)piperazine-1-carboxylate], in assay [1], the inhibition at 10 µM is 40%. For the same compound, the half-maximal inhibitory concentration (IC50) in the assay on HBV DNA (setting [3]) turned out to be 0.549 µM.

Take `C[S+]([O-])c1nc(NCCNC(=O)c2ccc(Cl)cc2Cl)cc(Nc2ccc(N3CCOCC3)cc2)n1` (stereo not shown) [Compound 5d, 2,4-dichloro-N-(2-(2-(methylsulfinyl)-6-(4-morpholinophenylamino)pyrimidin-4-ylamino)ethyl)benzamide]: the inhibition at 10 µM in assay [1] came to 0%. Also, the IC50 with HBV DNA (setting [3]) is > 10 µM.

With `CSc1nc(N)cc(N(Cc2ccc(F)cc2)c2ccc(N3CCOCC3)cc2)n1` [Compound 11a, N^4-(4-fluorobenzyl)-2-(methylthio)-N^4-(4-morpholinophenyl)pyrimidine-4,6-diamine], the inhibition at 10 µM in assay [1] was 71%. Also, in the assay with HBV DNA (setting [2]), the half-inhibitory concentration (IC50) was > 10 µM.

For `CC(C)(C)OC(=O)N1CCN(c2cc(NCc3ccc(Cl)cc3)nc(S(C)(=O)=O)n2)CC1` [Compound 22d, tert-butyl 4-(6-(4-chlorobenzylamino)-2-(methylsulfonyl)pyrimidin-4-yl)piperazine-1-carboxylate], the inhibition at 10 µM in assay [1] was 55%. The IC50 with HBV DNA (setting [3]) was 5.08 µM.

`CS(=O)(=O)c1nc(Cl)cc(Nc2ccc(F)cc2F)n1` [Compound 16a, 6-chloro-N-(2,4-difluorophenyl)-2-(methylsulfonyl)pyrimidin-4-amine]: in assay [1], the inhibition at 10 µM was determined as 85%. Besides, in the assay on HBV DNA (setting [3]), the IC50 was > 10 µM.

On to `COc1ncccc1C(=O)NCCNc1cc(Nc2ccc(F)c(F)c2)nc(S(C)(=O)=O)n1` [Compound 9g, N-(2-(6-(3,4-difluorophenylamino)-2-(methylsulfonyl)pyrimidin-4-ylamino)ethyl)-2-methoxynicotinamide], for which the inhibition at 10 µM in assay [1] stood at 59%. In addition, the half-inhibitory concentration (IC50) in the assay with HBV DNA (setting [3]) is > 10 µM.

Consider `CSc1nc(N)cc(N(CCc2ccc(F)cc2)c2ccc(N3CCOCC3)cc2)n1` [Compound 11b, N^4-(4-fluorophenethyl)-2-(methylthio)-N^4-(4-morpholinophenyl)pyrimidine-4,6-diamine], for which the inhibition at 10 µM in assay [1] was found to be 74%. For the same compound, in the assay on HBV DNA (setting [2]), the IC50 is > 10 µM.

As for `COc1ncccc1C(=O)NCCNc1cc(Nc2ccc(F)c(F)c2)nc(SC)n1` [Compound 8f, N-(2-(6-(3,4-difluorophenylamino)-2-(methylthio)pyrimidin-4-ylamino)ethyl)-2-methoxynicotinamide], the inhibition at 10 µM in assay [1] was 37%. The pIC50 in the assay with HBV DNA (setting [4]) is < 5.00.

Regarding “6-(4-aminopiperidin-1-yl)-2-(methylsulfonyl)-N-(3,4,5-trifluorophenyl)pyrimidin-4-amine [Compound 26h]”, the “Protein based assay (% inhibition), 0.1 μM” value in assay [1] (compound 0.1 μM) is 29%. Also, the “Protein based assay (% inhibition), 1 μM” value in assay [1] (compound 1 μM) came out at 96%. Moreover, the concentration for half-maximal inhibition (IC50) in the assay with HBV DNA (read-out: HBV DNA quantification (IC50 μM)) is 0.292 µM.
